Results as given in patent publication US4068074A, “Cephalosporin derivatives having at the 3-position of the cephem ring a heterocyclic thiomethyl group with a carboxy or sulfo group and at the 7-position of the cephem ring an α-heterocylic acylaminophenyl-acetamide group” (priority 1974, dated 1978).
≈ marks a conversion by molar mass, not a printed value. Where two headings read alike, the source gives them in different places.

What was measured:
[1] = Residual antibacterial activity after incubation with 90% plasma (Table 4); assay type: in vitro ADME, male Sprague-Dowley rat; details: 90% rat plasma; for remaining at 0.25 h / remaining at 0.5 h / remaining at 1.5 h: 90% plasma; for remaining at 0.25 h: 15 minute; for remaining at 0.5 h: 30 minute; for remaining at 1.5 h: 90 minute; for Residual activity: 0 minute
Procedure: (§1) The relation between the reaction period of time and the antibacterial activity (residual activity, %) when these compounds are incubated with the plasma and the liver homogenate of a male Sprague-Dowley rat is shown in Table 4. The residual antibacterial activity was measured by a thin-layer cup method according to Bacillus subtilis ATCC 6633.
A*Residual activity (%) when incubated with 90% plasma.

[2] = Residual antibacterial activity after incubation with 10% liver homogenate (Table 4); assay type: in vitro ADME, male Sprague-Dowley rat; details: 10% rat liver homogenate; for remaining at 0.25 h / remaining at 0.5 h / remaining at 1.5 h: 10% liver homogenate, read-out: Residual activity; for remaining at 0.25 h: 15 minute; for remaining at 0.5 h: 30 minute; for remaining at 1.5 h: 90 minute; for Residual activity: 0 minute
Procedure: as §1
B*Residual activity (%) when incubated with 10% liver homogenate.

[3] = test system: Shigella flexneri 2a 1675; assay: MIC against bacteria (Table I), strain (11); assay type: cell-based; details: 2A1675; (11) Shigella flexneri 2a 1675; read-out: MIC
Excerpt: (§2) Now, for illustrating the excellent pharmacological effects of the compounds of this invention, the values of MIC (γ/ml.) of the compounds against various bacteria are shown in Table 1, in which the compounds of this invention used are shown by example numbers.

[4] = test system: Escherichia coli kauffmann 0-1; assay: MIC against bacteria (Table I), strain (7); assay type: cell-based; details: Escherichia coli
Excerpt: as §2
(7) Escherichia coli kauffmann 0-1

[5] = test system: Micrococcus flavus ATCC 10240; assay: MIC against bacteria (Table I), strain (15); assay type: cell-based; details: ATCC10240
Excerpt: as §2
(15) Micrococcus flavus ATCC 10240

[6] = test system: Psuedomonas ovalis IMA 1002; assay: MIC against bacteria (Table I), strain (6); assay type: cell-based; details: (6) Psuedomonas ovalis IMA 1002; read-out: MIC
Excerpt: as §2
(6) Psuedomonas ovalis IMA 1002

[7] = test system: Proteus vulgaris OXK US; assay: MIC against bacteria (Table I), strain (1); assay type: cell-based
Excerpt: as §2
(1) Proteus vulgaris OXK US

[8] = test system: Staphylococcus Onuma; assay: MIC against bacteria (Table I), strain (18); assay type: cell-based
Excerpt: as §2
(18) Staphylococcus Onuma

[9] = test system: Proteus vulgaris 0X 19US; assay: MIC against bacteria (Table I), strain (2); assay type: cell-based; details: 0X19US; (2) Proteus vulgaris 0X 19US; read-out: MIC
Excerpt: as §2
(2) Proteus vulgaris 0X 19US

[10] = test system: Staphylococcus Shimanishi; assay: MIC against bacteria (Table I), strain (17); assay type: cell-based
Excerpt: as §2
(17) Staphylococcus Shimanishi

[11] = test system: Salmonella typhi H901 W; assay: MIC against bacteria (Table I), strain (9); assay type: cell-based; details: Salmonella enterica, TYPHI
Excerpt: as §2
(9) Salmonella typhi H901 W

[12] = test system: Shigella sonnei II 37148; assay: MIC against bacteria (Table I), strain (12); assay type: cell-based; details: II37148; (12) Shigella sonnei II 37148; read-out: MIC
Excerpt: as §2

[13] = test system: Salmonella enteritidis; assay: MIC against bacteria (Table I), strain (10); assay type: cell-based; details: Salmonella enterica
Excerpt: as §2
(10) Salmonella enteritidis

[14] = test system: Proteus mirabilis IXM OM-19; assay: MIC against bacteria (Table I), strain (3); assay type: cell-based; details: IXMOM19; (3) Proteus mirabilis IXM OM-19; read-out: MIC
Excerpt: as §2
(3) Proteus mirabilis IXM OM-19

[15] = test system: Staphylococcus aureus 209P; assay: MIC against bacteria (Table I), strain (16); assay type: cell-based; details: (16) Staphylococcus aureus 209P; read-out: MIC
Excerpt: as §2
(16) Staphylococcus aureus 209P

[16] = test system: Klebsiella pneumoniae ATCC 10031; assay: MIC against bacteria (Table I), strain (8); assay type: cell-based; details: ATCC10031
Excerpt: as §2
(8) Klebsiella pneumoniae ATCC 10031

[17] = test system: Bacillus megatherium 10778; assay: MIC against bacteria (Table I), strain (13); assay type: cell-based; details: (13) Bacillus megatherium 10778; read-out: MIC
Excerpt: as §2

[18] = test system: Pseudomonas aeruginosa ATCC 8689; assay: MIC against bacteria (Table I), strain (4); assay type: cell-based; details: ATCC8689; (4) Pseudomonas aeruginosa ATCC 8689; read-out: MIC
Excerpt: as §2
(4) Pseudomonas aeruginosa ATCC 8689

[19] = test system: Pseudomonas aeruginosa 99 (Gentamycin resistant); assay: MIC against bacteria (Table I), strain (5); assay type: cell-based; details: (5) Pseudomonas aeruginosa 99 (Gentamycin resistant); read-out: MIC
Excerpt: as §2
(5) Pseudomonas aeruginosa 99 (Gentamycin resistant)

[20] = test system: β-lactamase isolated from Pseudomonas aeruginosa 21; assay: Resistance to β-lactamase: amount of unaltered test sample (Table 3); assay type: biochemical; details: initial concentration 100γ/ml
Excerpt: For example, the relation between the amount (γ/ml) of an unaltered test sample at an initial concentration of the sample 100γ/ml against β-lactamase isolated from Pseudomonas aeruginosa 21 at various dilutions of the enzyme were investigated.

[21] = test system: Bacillus subtilis ATCC 6633; assay: MIC against bacteria (Table I), strain (14); assay type: cell-based; details: ATCC6633; (14) Bacillus subtilis ATCC 6633; read-out: MIC
Excerpt: as §2
(14) Bacillus subtilis ATCC 6633

[22] = Solubility of salts in water (Table 2); assay type: physicochemical; details: for Solubility (appearance of solution): sodium salt, in water; for solubility: disodium salt, water, showing pH 7.4, read-out: Solubility: disodium salt dissolved in water in an amount of
Excerpt: An advantage of the compounds of this invention is that the salts, for example, sodium salts of these compounds are readily soluble in water at pH of living bodies, which makes them suitable for injections at high concentration. The solubility of these compounds are illustrated in Table 2 together with a control example.

[23] = (15) Micrococcus flavus ATCC 10240, read-out: MIC
[24] = (17) Staphylococcus Shimanishi, read-out: MIC
[25] = (1) Proteus vulgaris OXK US, read-out: MIC
[26] = (8) Klebsiella pneumoniae ATCC 10031, read-out: MIC
[27] = (10) Salmonella enteritidis, read-out: MIC

| Structure (SMILES) | remaining at 0.25 h [1] [%] | remaining at 0.5 h [1] [%] | remaining at 1.5 h [1] [%] | Residual activity [1] [%] | MIC [3] [µg/mL] | MIC [4] [µg/mL] | MIC [5, 23] [µg/mL] | MIC [6] [µg/mL] | MIC ([8]; Staphylococcus) [µg/mL] | MIC [9] [µg/mL] | MIC [10, 24] [µg/mL] | MIC [11] [µg/mL] | MIC [12] [µg/mL] | MIC [14] [µg/mL] | MIC [15] [µg/mL] | MIC [17] [µg/mL] | MIC [18] [µg/mL] | MIC [19] [µg/mL] | MIC [21] [µg/mL] | MIC [7, 25] [µg/mL] | further results |
| --- | --- | --- | --- | --- | --- | --- | --- | --- | --- | --- | --- | --- | --- | --- | --- | --- | --- | --- | --- | --- | --- |
| O=C(Cc1cccs1)N[C@@H]1C(=O)N2C(C(=O)[O-])=C(C[n+]3ccccc3)CS[C@H]12 [Cephaloridine, reference compound] | 97.2 | 89.5 | 72.2 | 100 |  |  |  |  |  |  |  |  |  |  |  |  |  |  |  |  | remaining at 0.25 h [2]: 82.3%; remaining at 0.5 h [2]: 86%; remaining at 1.5 h [2]: 91.1%; Residual activity [2]: 100% |
| Cc1nnc(SCC2=C(C(=O)O)N3C(=O)[C@@H](NC(=O)Cn4cnnn4)[C@H]3SC2)s1 [Cephazolin, reference compound] |  |  |  |  | 1.56 (≈ 3.43 µM) | 1.56 (≈ 3.43 µM) | 0.19 (≈ 0.418 µM) | > 100 | 1.56 (≈ 3.43 µM) | 25 (≈ 55 µM) | 0.78 (≈ 1.72 µM) | 1.56 (≈ 3.43 µM) | 1.56 (≈ 3.43 µM) | 6.25 (≈ 13.8 µM) | 0.19 (≈ 0.418 µM) | 0.19 (≈ 0.418 µM) | > 100 | > 100 | 0.19 (≈ 0.418 µM) |  | MIC ([7]; Proteus vulgaris): 3.13 µg/mL (≈ 6.89 µM); MIC ([13]; ENTERITIDIS): 1.56 µg/mL (≈ 3.43 µM); MIC ([16]; Klebsiella pneumoniae): 1.56 µg/mL (≈ 3.43 µM); Amount of unaltered test sample ([20]; β-lactamase dilution ×2): 0 µg/mL; Amount of unaltered test sample ([20]; β-lactamase dilution ×4): 0 µg/mL; Amount of unaltered test sample ([20]; β-lactamase dilution ×8): 0 µg/mL; Amount of unaltered test sample ([20]; β-lactamase dilution ×16): 0 µg/mL; Amount of unaltered test sample ([20]; β-lactamase dilution ×32): 0 µg/mL; Amount of unaltered test sample ([20]; β-lactamase dilution ×64): 9.2 µg/mL; Amount of unaltered test sample ([20]; β-lactamase dilution ×128): 21.5 µg/mL; Amount of unaltered test sample ([20]; β-lactamase dilution ×256): 84.6 µg/mL; Amount of unaltered test sample ([20]; β-lactamase dilution ×512): 96.7 µg/mL; Amount of unaltered test sample ([20]; β-lactamase dilution ×1024): 100 µg/mL |
| Cc1nnc(SCC2=C(C(=O)O)N3C(=O)[C@@H](NC(=O)[C@H](NC(=O)c4cnccc4O)c4ccccc4)[C@H]3SC2)s1 [Control sample, reference compound] |  |  |  |  |  |  |  |  |  |  |  |  |  |  |  |  |  |  |  |  | Solubility (appearance of solution) ([22]; at 0.5%): clearly; Solubility (appearance of solution) ([22]; at 1%): became slight turbid; Solubility (appearance of solution) ([22]; at 5%): became turbid; Solubility (appearance of solution) ([22]; at 10%): became thickly turbid; Solubility (appearance of solution) ([22]; at 20%): gelled |
| O=C(O)C1=C(CSc2nnc(SCCS(=O)(=O)O)s2)CS[C@@H]2[C@H](NC(=O)[C@H](NC(=O)c3cnccc3O)c3ccccc3)C(=O)N12 [Example 9, 7-[D-α-(4-hydroxynicotinoylamido)-α-phenylacetamido]-3-(5-sulfoethylthio-1,3,4-thiadiazol-2-yl)thiomethyl-Δ^3-cephem-4-carboxylic acid] | 103 | 92 | 100 | 100 | 1.56 (≈ 2.15 µM) | 3.13 (≈ 4.32 µM) | 3.13 (≈ 4.32 µM) | 12.5 (≈ 17.2 µM) | 6.25 (≈ 8.62 µM) | 0.39 (≈ 0.538 µM) | 3.13 (≈ 4.32 µM) | 1.56 (≈ 2.15 µM) | 6.25 (≈ 8.62 µM) | 0.39 (≈ 0.538 µM) | 0.78 (≈ 1.08 µM) | 0.39 (≈ 0.538 µM) | 12.5 (≈ 17.2 µM) | 12.5 (≈ 17.2 µM) | 0.39 (≈ 0.538 µM) | 0.19 (≈ 0.262 µM) | MIC ([13]; ENTERITIDIS): 0.39 µg/mL (≈ 0.538 µM); MIC [16, 26]: 3.13 µg/mL (≈ 4.32 µM); remaining at 0.25 h [2]: 100%; remaining at 0.5 h [2]: 100%; remaining at 1.5 h [2]: 102%; Residual activity [2]: 100% |
| O=C(O)CSc1nsc(SCC2=C(C(=O)O)N3C(=O)[C@@H](NC(=O)[C@H](NC(=O)c4cnccc4O)c4ccccc4)[C@H]3SC2)n1 [Example 13, 7-[D-α-(4-hydroxynicotinoylamido)-α-phenylacetamido]-3-(3-carboxymethylthio-1,2,4-thiadiazol-5yl)thiomethyl-Δ^3 cephem-4-carboxylic acid] |  |  |  |  | 1.56 (≈ 2.31 µM) | 3.13 (≈ 4.64 µM) | 6.25 (≈ 9.26 µM) | 12.5 (≈ 18.5 µM) |  | 0.78 (≈ 1.16 µM) | 6.25 (≈ 9.26 µM) | 1.56 (≈ 2.31 µM) | 3.13 (≈ 4.64 µM) | 0.39 (≈ 0.578 µM) | 0.78 (≈ 1.16 µM) | 0.39 (≈ 0.578 µM) | 12.5 (≈ 18.5 µM) | 6.25 (≈ 9.26 µM) | 0.39 (≈ 0.578 µM) | < 0.09 | MIC ([8]; (18) Staphylococcus Onuma, read-out: MIC): 6.25 µg/mL (≈ 9.26 µM); MIC [13, 27]: 0.39 µg/mL (≈ 0.578 µM); solubility [22]: > 200 mg/mL; MIC ([16]; Klebsiella pneumoniae): 3.13 µg/mL (≈ 4.64 µM) |
| O=C(O)CSc1cc(SCC2=C(C(=O)O)N3C(=O)[C@@H](NC(=O)[C@H](NC(=O)c4cnccc4O)c4ccccc4)[C@H]3SC2)ncn1 [Example 16] |  |  |  |  | 3.13 (≈ 4.68 µM) | 6.25 (≈ 9.35 µM) |  | 25 (≈ 37.4 µM) | 6.25 (≈ 9.35 µM) | < 0.09 |  | 1.56 (≈ 2.33 µM) | 6.25 (≈ 9.35 µM) | 0.19 (≈ 0.284 µM) | 0.78 (≈ 1.17 µM) | 0.39 (≈ 0.583 µM) | 25 (≈ 37.4 µM) | 25 (≈ 37.4 µM) | 0.19 (≈ 0.284 µM) | < 0.09 | MIC ([5]; Micrococcus flavus): 3.13 µg/mL (≈ 4.68 µM); MIC ([10]; Staphylococcus): 6.25 µg/mL (≈ 9.35 µM); MIC [13, 27]: 0.78 µg/mL (≈ 1.17 µM); solubility [22]: > 200 mg/mL; MIC [16, 26]: 12.5 µg/mL (≈ 18.7 µM) |
